In one test the test system is ETAR mRNA expression. In words: Real-time quantitative RT-PCR of ETAR mRNA in smooth muscle cells (A10). The following applies: vascular smooth muscle cells, 100 μg/ml, 48 hrs. The format is cell-based. How it is done: Extraction of cellular RNA: Subculturing smooth muscle cells to 100-mm culture dishes. After the cells had filled the culture dishes, Sal-B and its analogs were added to treat the cells for 48 hrs. After that, 1×PBS solutions were added to wash the cells three times. After adding 1 ml TRIzol, the cells were scraped off and placed in 1.5 ml micro-centrifuge tubes. Following the addition of 0.2 ml chloroform to each tube, the tubes were shaken, left at room temperature for 3 min., and run in a centrifuge at 12,000 rpm for 15 min. The supernatant liquid was removed and the cells placed in new micro-centrifuge tubes. After adding an amount of isopropyl alcohol equivalent to one-half of the volume of the supernatant liquid, and mixing until homogeneous, the samples were allowed to stand at room temperature for 10 min. The supernatant liquid was removed after centrifugation at 12,000 rpm for 10 min. 1 ml 70% alcohol was added to wash out salts, followed by centrifugation for 5 min. and removal of supernatant liquid. The samples were dissolved in 50 μl DEPC-H2O after drying.
(1) cDNA synthesis: 1 μl Random hexamer primer (20 μM) and 1 μl dNTP(10 mm) were added to 3 μg RNA, which was allowed to react at 65° C. for 5 min., and then placed on ice promptly. After the addition of 2 μl 10× reaction buffer, 0.5 μl RNaseOUT (40 unit/μl) and 1 μl SuperScript III RT (200 unit/μl), the solution was mixed until homogeneous, and allowed to react at 50° C. for 50 min. After that, the mixture was heated to 85° C. for 5 min. to terminate the enzymatic reaction. The samples were preserved at −70° C. for later use.
(2) PCR quantitative analysis: After adding 7.5 μl PCR primer mix (400 nm each) and 15 μl SYBR Green dye reagent to the 7.5 μl cDNA template, the solution was placed in Bio-Rad's iCycler for PCR reaction. The resulting data was inputted into Gene Expression Analysis for iCycler iQ Real-Time PCR Detection System for quantitative analysis of gene expression.
Furthermore, after treating vascular smooth muscle cells with 100 μg/ml of either Sal-B or EBA for 48 hrs, the identical concentrations of cellular whole RNA were sampled for the synthesis of cDNA by using reverse transcriptase. The PCR method was employed to determine the amounts of endothelin receptor mRNA expression. […] For the analysis of ETAR mRNA expression by using the real-time PCR method, vascular smooth muscle cells at full confluence 100-mm culture dishes were treated with 100 μg/ml of either Sal-B or EBA for 48 hrs. The identical concentrations of cellular whole RNA were sampled for the synthesis of cDNA by using reverse transcriptase. The real-time PCR method was used to compare the amounts of ETAR mRNA expression.
The different analogs, compounds A to F, had different effects on ETAR mRNA expression. The control group represented treating smooth muscle cells (A10) with DMSO, and the positive control group represented treating the cells with Sal-B. The smooth muscle cells were treated with 0.2 mM Sal-B and compounds A to F for 48 hrs. The identical concentrations of cellular RNA were sampled for the synthesis of cDNA by using reverse transcriptase. The real-time PCR method was employed to determine the amounts of ETAR mRNA expression. Compared with the control group, compound B had the least effect on down-regulating ETAR mRNA expression, as approximately 50% of the ETAR mRNA remained after the treatment. […]

The next test relates to PC-3 cancer cells. In words: Flow cytometry cell cycle analysis (sub-G1, apoptosis) of PC-3 cells. Particulars: PC-3, 0.4 mM, 48 hrs, PI flow cytometry; control around 1.18%. Type of test: cell-based. How it is done:
After suspending cells, the precooled 70% ethanol was used for fixing the cells. After centrifuging the mixture for 10 min. at 3,000 rpm, supernatant liquid was removed. Propidium iodide (PI) buffer (0.1% Triton X-100, 0.2 μg/ml RNase A, 40 μg/ml PI) was added, and then the solution was kept still at 37° C. for 30 min. After that, the cell cycle analysis was conducted by flow cytometry.
Flow cytometry was used to determine whether Sal-B and its analogs induced apoptosis in cancer cells. After treating PC-3 cancer cells with 0.4 mM Sal-B and EBA, and 0.01 mM compounds B and A for 48 hrs, the cells were collected and allowed to react with PI buffer for 30 min. Flow cytometry was then employed to measure the cell cycle. Approximately 5.16% of PC-3 cancer cells were at sub-G1 phase after treating with Sal-B, roughly 5.27% were at sub-G1 phase after treating with compound B, and roughly 8.54% were at sub-G1 phase after treating with compound A. However, for the control, only around 1.18% of the cells were at sub-G1 phase. Therefore, Sal-B and its analogs (compounds B and A) thus caused a significant increase in the percentage of cells at sub-G1 phase.

For the molecule `O=C(/C=C/c1ccc(O)c2c1[C@H](C(=O)O[C@H](Cc1ccc(O)c(O)c1)C(=O)[O-])[C@@H](c1ccc(O)c(O)c1)O2)O[C@H](Cc1ccc(O)c(O)c1)C(=O)[O-].[Mg+2]` [Sal-B, magnesium lithospermate B], the “ETAR mRNA expression, % of that in the control” value with ETAR mRNA expression was “approximately 27%”. The “PC-3 cancer cells at sub-G1 phase” value in the test with PC-3 cancer cells is “Approximately 5.16%”.
Taken in the same sequence, the figures for epiblechnic acid [EBA] were “roughly 51%” and “approximately 1.73%”.

(Values after patent US8080582B2, “Derivatives of 8-epiblechnic acid and their effects on down-regulation of endothelin (ETA) receptor mRNA” (ScinoPharm Taiwan Ltd., priority 2008, dated 2011).)
